In the NIST ThermoML archive (doi:10.1021/acs.jced.5b00251):
Numbers after ± are expanded uncertainties.

Assay: refractive index (other wavelength) (dimensionless); xn = mol fraction of the nth substance listed
Details: 101 kPa, Liquid, Standard Abbe refractometry

CC(C)Cc1ccccc1 [(2-methylpropyl)benzene] + c1ccc2c(c1)CCCC2
refractive index
Details | x2 = 0.1014 | x2 = 0.2024 | x2 = 0.3032 | x2 = 0.4036 | x2 = 0.5038 | x2 = 0.6036 | x2 = 0.7032 | x2 = 0.8024 | x2 = 0.9014
293.15 K, Wavelength=436.1 nm | 1.50977 ± 0.00078 | 1.51503 ± 0.0008 | 1.52078 ± 0.00076 | 1.52612 ± 0.0008 | 1.53208 ± 0.00078 | 1.53797 ± 0.00077 | 1.54392 ± 0.00078 | 1.55007 ± 0.00077 | 1.55611 ± 0.00078
293.15 K, Wavelength=513.9 nm | 1.49809 ± 0.001 | 1.50316 ± 0.00091 | 1.5087 ± 0.0009 | 1.51409 ± 0.00089 | 1.51959 ± 0.00092 | 1.52525 ± 0.0009 | 1.53097 ± 0.00091 | 1.5369 ± 0.00091 | 1.54273 ± 0.001
293.15 K, Wavelength=589.3 nm | 1.49141 ± 0.00079 | 1.49657 ± 0.00077 | 1.50199 ± 0.00078 | 1.50701 ± 0.00084 | 1.51266 ± 0.00079 | 1.51821 ± 0.00078 | 1.52382 ± 0.00078 | 1.52961 ± 0.00078 | 1.53531 ± 0.00082
293.15 K, Wavelength=633.2 nm | 1.4889 ± 0.00076 | 1.49381 ± 0.00076 | 1.49922 ± 0.00077 | 1.50445 ± 0.00077 | 1.50978 ± 0.0008 | 1.51528 ± 0.00074 | 1.52085 ± 0.00077 | 1.5266 ± 0.00075 | 1.53226 ± 0.0008
293.15 K, Wavelength=657.2 nm | 1.48749 ± 0.00074 | 1.49254 ± 0.00076 | 1.49852 ± 0.00074 | 1.50384 ± 0.00078 | 1.50967 ± 0.00071 | 1.51394 ± 0.00076 | 1.52005 ± 0.00069 | 1.52522 ± 0.00076 | 1.53141 ± 0.00069
298.15 K, Wavelength=436.1 nm | 1.50717 ± 0.00078 | 1.51248 ± 0.00078 | 1.51824 ± 0.00078 | 1.52362 ± 0.00078 | 1.52954 ± 0.00079 | 1.53551 ± 0.00077 | 1.54144 ± 0.00078 | 1.54758 ± 0.00078 | 1.55354 ± 0.00078
298.15 K, Wavelength=513.9 nm | 1.49546 ± 0.00076 | 1.50075 ± 0.00076 | 1.50623 ± 0.00076 | 1.51165 ± 0.00077 | 1.51711 ± 0.00077 | 1.52288 ± 0.00076 | 1.5286 ± 0.00076 | 1.53447 ± 0.00076 | 1.54022 ± 0.00076
298.15 K, Wavelength=589.3 nm | 1.48927 ± 0.00074 | 1.49432 ± 0.00076 | 1.49956 ± 0.00075 | 1.50446 ± 0.00075 | 1.51023 ± 0.00075 | 1.51588 ± 0.00074 | 1.52148 ± 0.00075 | 1.52722 ± 0.00075 | 1.53287 ± 0.00075
298.15 K, Wavelength=633.2 nm | 1.48633 ± 0.00075 | 1.49149 ± 0.00075 | 1.49681 ± 0.00075 | 1.50206 ± 0.00077 | 1.50737 ± 0.00075 | 1.51298 ± 0.00075 | 1.51853 ± 0.00075 | 1.52424 ± 0.00074 | 1.52981 ± 0.00074
298.15 K, Wavelength=657.2 nm | 1.48512 ± 0.00074 | 1.49029 ± 0.00073 | 1.49594 ± 0.00077 | 1.50135 ± 0.00076 | 1.50706 ± 0.00076 | 1.51205 ± 0.0007 | 1.51776 ± 0.00074 | 1.52302 ± 0.00074 | 1.52941 ± 0.00074
303.15 K, Wavelength=436.1 nm | 1.50468 ± 0.00078 | 1.50986 ± 0.00076 | 1.51569 ± 0.00079 | 1.52094 ± 0.00076 | 1.52674 ± 0.0008 | 1.53306 ± 0.00078 | 1.53885 ± 0.00078 | 1.54503 ± 0.00078 | 1.55109 ± 0.00079
303.15 K, Wavelength=513.9 nm | 1.49315 ± 0.00076 | 1.49828 ± 0.00075 | 1.50376 ± 0.00078 | 1.50899 ± 0.00076 | 1.5146 ± 0.00076 | 1.52033 ± 0.00078 | 1.52606 ± 0.00076 | 1.532 ± 0.00076 | 1.53785 ± 0.00078
303.15 K, Wavelength=589.3 nm | 1.48673 ± 0.00076 | 1.49163 ± 0.00075 | 1.49715 ± 0.00076 | 1.5021 ± 0.00075 | 1.50776 ± 0.00077 | 1.51352 ± 0.00075 | 1.51899 ± 0.00075 | 1.52478 ± 0.00075 | 1.53052 ± 0.00075
303.15 K, Wavelength=633.2 nm | 1.48406 ± 0.00075 | 1.48893 ± 0.00075 | 1.49439 ± 0.00076 | 1.49932 ± 0.00076 | 1.50493 ± 0.00077 | 1.51036 ± 0.00075 | 1.51604 ± 0.00075 | 1.52181 ± 0.00075 | 1.52748 ± 0.00076
303.15 K, Wavelength=657.2 nm | 1.48275 ± 0.00074 | 1.48792 ± 0.00075 | 1.49332 ± 0.00076 | 1.49885 ± 0.00073 | 1.50461 ± 0.00074 | 1.50983 ± 0.00073 | 1.51528 ± 0.00076 | 1.52043 ± 0.00074 | 1.52666 ± 0.00075
308.15 K, Wavelength=436.1 nm | 1.50202 ± 0.00078 | 1.50759 ± 0.00077 | 1.5129 ± 0.00079 | 1.51879 ± 0.00075 | 1.52412 ± 0.00079 | 1.53042 ± 0.00077 | 1.53639 ± 0.00077 | 1.5425 ± 0.00077 | 1.54823 ± 0.0008
308.15 K, Wavelength=513.9 nm | 1.49045 ± 0.00076 | 1.49591 ± 0.00077 | 1.50103 ± 0.00076 | 1.50671 ± 0.00076 | 1.51215 ± 0.00076 | 1.51765 ± 0.00078 | 1.52366 ± 0.00076 | 1.52953 ± 0.00076 | 1.53505 ± 0.00078
308.15 K, Wavelength=589.3 nm | 1.48428 ± 0.00074 | 1.48939 ± 0.00073 | 1.49461 ± 0.00076 | 1.49955 ± 0.00077 | 1.50515 ± 0.00077 | 1.51099 ± 0.00076 | 1.51661 ± 0.00075 | 1.52237 ± 0.00074 | 1.52797 ± 0.00076
308.15 K, Wavelength=633.2 nm | 1.48142 ± 0.00075 | 1.48659 ± 0.00075 | 1.4917 ± 0.00075 | 1.49701 ± 0.00076 | 1.50224 ± 0.00078 | 1.50811 ± 0.00075 | 1.51368 ± 0.00074 | 1.51941 ± 0.00074 | 1.52477 ± 0.00076
308.15 K, Wavelength=657.2 nm | 1.48038 ± 0.00074 | 1.48538 ± 0.00074 | 1.49085 ± 0.00073 | 1.49669 ± 0.00073 | 1.50224 ± 0.00076 | 1.50738 ± 0.00075 | 1.51272 ± 0.00076 | 1.51825 ± 0.00074 | 1.52447 ± 0.00075
313.15 K, Wavelength=436.1 nm | 1.49957 ± 0.00078 | 1.5048 ± 0.00078 | 1.51044 ± 0.00077 | 1.51631 ± 0.00078 | 1.52152 ± 0.00078 | 1.52806 ± 0.00078 | 1.53388 ± 0.00078 | 1.54002 ± 0.00077 | 1.54572 ± 0.00079
313.15 K, Wavelength=513.9 nm | 1.48816 ± 0.00075 | 1.49321 ± 0.00077 | 1.49885 ± 0.00076 | 1.50413 ± 0.00078 | 1.50976 ± 0.00074 | 1.51512 ± 0.00074 | 1.52123 ± 0.00075 | 1.52715 ± 0.00076 | 1.53263 ± 0.00077
313.15 K, Wavelength=589.3 nm | 1.48198 ± 0.00074 | 1.48705 ± 0.00075 | 1.49215 ± 0.00076 | 1.49702 ± 0.00076 | 1.50259 ± 0.00078 | 1.50845 ± 0.00075 | 1.51422 ± 0.00075 | 1.52003 ± 0.00075 | 1.52558 ± 0.00077
313.15 K, Wavelength=633.2 nm | 1.47918 ± 0.00075 | 1.48409 ± 0.00074 | 1.48957 ± 0.00074 | 1.49422 ± 0.00077 | 1.49959 ± 0.00076 | 1.50542 ± 0.00075 | 1.51132 ± 0.00075 | 1.51708 ± 0.00074 | 1.52248 ± 0.00075
313.15 K, Wavelength=657.2 nm | 1.47807 ± 0.00074 | 1.48312 ± 0.00074 | 1.48866 ± 0.00075 | 1.49418 ± 0.00075 | 1.49947 ± 0.00078 | 1.50491 ± 0.00077 | 1.51025 ± 0.00077 | 1.51573 ± 0.00072 | 1.52168 ± 0.00079
318.15 K, Wavelength=436.1 nm | 1.49678 ± 0.00081 | 1.50247 ± 0.00076 | 1.50783 ± 0.00076 | 1.51372 ± 0.00081 | 1.51897 ± 0.00073 | 1.52533 ± 0.00082 | 1.53125 ± 0.00077 | 1.53748 ± 0.00081 | 1.54301 ± 0.0008
318.15 K, Wavelength=513.9 nm | 1.48564 ± 0.00061 | 1.49078 ± 0.00064 | 1.49611 ± 0.00068 | 1.50143 ± 0.00066 | 1.50751 ± 0.00067 | 1.51299 ± 0.00061 | 1.51892 ± 0.00064 | 1.52466 ± 0.00065 | 1.53007 ± 0.0006
318.15 K, Wavelength=589.3 nm | 1.47955 ± 0.00072 | 1.48455 ± 0.00073 | 1.48962 ± 0.00073 | 1.49455 ± 0.00071 | 1.49987 ± 0.00071 | 1.50614 ± 0.00072 | 1.51175 ± 0.00071 | 1.51758 ± 0.00073 | 1.52287 ± 0.00072
318.15 K, Wavelength=633.2 nm | 1.47656 ± 0.00074 | 1.48179 ± 0.00073 | 1.4869 ± 0.00077 | 1.49181 ± 0.00069 | 1.49721 ± 0.00069 | 1.50325 ± 0.00071 | 1.50887 ± 0.00074 | 1.51464 ± 0.00074 | 1.51989 ± 0.00073
318.15 K, Wavelength=657.2 nm | 1.47562 ± 0.00075 | 1.48056 ± 0.00074 | 1.48595 ± 0.00076 | 1.49181 ± 0.00077 | 1.49685 ± 0.00076 | 1.50222 ± 0.00078 | 1.50758 ± 0.00074 | 1.51388 ± 0.00072 | 1.51897 ± 0.00078
